Data published in patent publication US9199200B2, “Submerged membrane bioreactor system and biological methods for removing bisphenol compounds from municipal wastewater” (Centre de Recherche Industrielle de Québec (CRIQ), priority 2010, dated 2015).

Columns and labels:
[1] = cited from earlier work
[2] = Adsorption kinetics of BPA on inactivated sludge (pseudo-first order, pseudo-second order, Elovich); assay type: physicochemical
Procedure: According to the second set of assays, adsorption kinetic is evaluated using 200 mL of inactivated sludge at 15 g L^−1 and 2.0 mg/L of BPA is initially used. The flasks are shaken at 150 rpm at 22±2° C. and samples are taken at regular interval times (5, 10, 15, 20, 30, 40, 60, 80, 100, 120 min). Several appropriate models are reported in literature, but for the purposes of the experiments, three models are used, namely the Lagergren model (first order model) as described by Lagergren in Kung Sven. Veten. Hand 24 (1898) 1-39, the pseudo-second-order as described by Ho et al. in Process Biochemistry 34 (1999) 451-465, and the Elovich model as described in Chemical reviews (1960) 267-312.
Adsorption kinetic allows controlling the efficiency of the process and can be helpful to understand the mechanisms of the sorption process. To evaluate the sorption rate, the kinetic data are modeled using pseudo-first order and pseudo-second order equations. The kinetic models parameters are estimated by regression analysis method using Excel™ software. In accordance with Lagegren as cited above and with Bhattacharya et al., J. Env. Eng. ASCE 110 (1984) 110-122, pseudo-first order chemical sorption is described by the following equation (Eq. (15)):
This model is based on the assumption that the rate is proportional to the number of free sites. Integrating Eq. (15) with boundary conditions qt=0 at t=0 and qt=qt at t=t gives (Eq. (16)): ln(qe−qt)=ln qe−k1t (16)
In accordance with Ho et al. as cited above, for the rate constant of pseudo-second order chemical sorption, the following equation (Eq. (17)) has been also applied: […]
A third model, known as Elovich model described in Low et al. cited above, has been applied using the following equation (Eq. (19)): […]
If an amount (q0) of adsorbate is instantaneously adsorbed, after integration equation Eq. (20) becomes (Eq. (21)): […]

[3] = system: biomass (activated sludge) of the SMBR; experiment: COD removal in submerged membrane bioreactor (SMBR) fed synthetic wastewater contaminated by BPA
Text: According to another embodiment, a submerged membrane bioreactor system (SMBR) operated at the laboratory scale is represented in the diagram of FIG. 1. The pilot unit is comprised of ZEEWEED® (ZW-1) hollow-fibre membranes of 0.04 μm rated pore diameter and 0.047 m^2 total filtering surface area, assembled vertically. The membrane unit is provided by Zenon Environmental & Co (Oakville, ON, Canada). ZW-1 membrane, whose module contains 80 fibres of 20 cm length, may be either operated in closed loop or in continuous mode of operation, through a stirred 6 L tank of 19.1 cm water high. Filtration may be achieved by drawing water through the membrane under a slight vacuum generated by a peristaltic pump (11) and measured by a manometer (10) located just after the membrane on the aspiration line. Air may be supplied through an extended aeration tube located inside the membrane module and also used to attach it vertically. The filtration of the effluent may be carried out intermittently (5 min of filtration followed by 30 s of pause) but air should be continuously injected in the SMBR system. An oxygen probe (5) may be connected to an oxymeter and installed in the bioreactor tank to measure dissolved oxygen concentration. The air flow-rate may be measured using a flow-meter (17). pH and temperature can also be measured during the experiments by using pH (8) and temperature (9) probes installed in the bioreactor tank.
According to some embodiments of the present invention, the SMBR system may be seeded by activated sludge collected from any suitable municipal wastewater treatment plant. The first step consists in developing the biomass by using a synthetic wastewater of a known composition carried out according known techniques. For example, the initial biomass may be developed using glucose as an organic substrate (400-2000 mg/L of COD), although any other suitable sources of carbon may be employed as organic substrates, for example sodium acetate or peptone. The biomass is developed over a period of time suitable to obtain a sufficiently concentrated biomass. […]
According to an embodiment, the biomass may be acclimatized in oxidizing the bisphenol compound over of period of time sufficient to obtain a biomass capable of oxidizing said bisphenol compound. […] It is worth noting that, during both successive stages (biomass development and biomass acclimatization), the performance of the SMBR was evaluated by the measurements of COD. […]
During the experimental work, samples are taken for different analyses. […] BPA is also analyzed using liquid chromatography mass spectrometer (LC-MS/MS) after extraction and purification on a solid phase. […]

[4] = 2.0 mg/L BPA, 15 g/L inactivated sludge

CC(C)(c1ccc(O)cc1)c1ccc(O)cc1 [BPA, 2,2-Bis(4-hydroxyphenyl)propane]
Equilibrium adsorption time ([1]; Chen et al., submerged membrane bioreactor process): 30 min
Freundlich coefficient log Kf ([1]; Clara et al.): −0.614
BPA adsorption equilibrium time ([1]; Clara et al., conventional activated sludge reactor): 2 h
q0 as share of the amount of BPA adsorbed at equilibrium (qe) [2]: 1.2%
k1, pseudo-first order rate constant [2, 4]: 0.032 min⁻¹
k2, pseudo-second order rate constant [2, 4]: 0.194 g/mg/min
q0, amount of BPA instantaneously adsorbed (Elovich) [2, 4]: 0.0013 mg/g
qe, pseudo-first order (Lagergren) [2, 4]: 0.109 mg/g
qe, pseudo-second order [2, 4]: 0.132 mg/g
α (Elovich) [2, 4]: 24.98 g/mg
α (Elovich), second parameter [2, 4]: 0.0040 mg/g/min
BPA concentration at the entry of the SMBR from which foam is observed in the mixed liquor (perturbation in the bacterial activity) ([3]; 14 g VSS/L, HRT 6 h): ≥ 25 mg/L
Volumetric loading at which BPA became toxic for the bacterial activity ([3]; SMBR, around 5.0 mg/L BPA): 21.6 g BPA/m^3/d
Limit of toxicity, organic loading ([3]; SMBR, at 25 mg BPA/L): 7.71 g BPA/kg VSS/d
Limit of toxicity, volumetric loading ([3]; SMBR, at 25 mg BPA/L): about 108 g BPA/m^3/d
